Data reported in US20230129866A1 (PureTech LYT 100, Inc., priority 2020, published 2023).
Like-named read-outs stand apart in the source and are kept apart here.

What was measured:
[1] = 91-day repeat dose oral toxicity and toxicokinetics study in rats; conditions: for Ratio of exposure (AUC), Group 4 (LYT-100 at 750 mg/kg) analyte / Group 5 (SD-559 at 750 mg/kg) analyte: LYT-100/SD-559, SD-790/SD-788, SD-1051/SD-1050, SD-789 Group 4/SD-789 Group 5; for Cmax in rat relative to human: male rat Day 1 vs human; for Exposure in rats relative to humans after 28 days of daily dosing: male rat Day 28 vs human; for Exposure (AUC) in rat relative to human: male rats 750 mg/kg Day 1 vs human single 801 mg dose; for Dose proportionality of AUC0-24 over 250 to 750 mg/kg / Dose proportionality of Cmax over 250 to 750 mg/kg: rats dosed with SD-560, Groups 2 to 4, general statement
Procedure: The original male TK animals received 1000 mg/kg of SD-559 on Day 1 and continued on study. The protocol was amended to add additional TK male animals in Group 6 for Day 1 collection of TK samples at 875 mg/kg.
Blood samples were collected from 3 subsets of 3 animals/sex on Day 1 and Day 28 at pre-dose, 0.25, 0.5, 1, 2, 4. 8 and 24 hours (hr) post-dose for groups 2 to 6 and from one subset of 3 animals/sex at 0.25 hr post-dose for the vehicle group (group 1). […] Non-compartmental analysis (NCA) of plasma concentration data was conducted using Phoenix® WinNonlin®, version 8.0.

[2] = Phase 1 multiple ascending dose (MAD) study Part 1, healthy volunteers (PK and safety); conditions: for Accumulation ratios (AUC96-108/AUC0-12) across all dose groups: 100 mg, 250 mg, 500 mg, and 750 mg BID, Cohorts 1-4, FIG. 19; for Average ratio to the parent (M/P) by AUC: range in brackets
Procedure: Up to 5 dosing cohorts are planned in Part 1.
Additional cohorts and intermediate doses may be selected in lieu of predefined doses as noted and in accordance with safety and tolerability responses, but doses will not exceed 1000 mg BID or a total daily dose of 2000 mg.
A standardised lunch will be served ≥4 h post breakfast and ≥4 h prior to dinner. An evening snack will be served ≥3 h following evening study medication administration. No additional fluids will be allowed during the 1 h pre- and post-doses. On Day 6, subjects will replicate mealtimes as scheduled on Day 1-5.
Plasma PK parameters (non-compartmental or compartmental analysis as appropriate) will include, but are not limited to: • Following single dose: Tmax, tlag, Cmax, AUC0-4, AUC0-last, t1/2, AUC0-inf, lambda z, %AUCext, CL/F, Vz/F, Cmax/D, AUC0-last/D, AUC0-inf/D and MRT (D is dose) • After repeated doses: Ctrough, Ctrough/D • Following repeated doses on last day: Tmax, Cmax, Cavg, tlag, t1/2, AUC0-4, AUC0-last; AUC0-inf, lambda z, %AUCext, CLss/F, Vzss/F, MRT, PTF, Rac(AUC), Rac(Cmax), Cmax/D, AUClast/D, AUC0-inf/D and Rae (accumulation ratio).

[3] = humans, cited from earlier work
[4] = 200 mg SD-559 (pirfenidone) BID, Huang et al.; in ng/mL; cited from earlier work
[5] = Single 801 mg dose, double-blinded, cross-over study of LYT-100 vs pirfenidone in healthy volunteers (PK and safety); conditions: for Cmax (ng/mL), Mean / AUC0-t (hr*ng/mL), Mean / tmax (hr), Median / % AUC extrap, Mean / AUC(inf) (hr*ng/mL), Mean / Kel (1/hr), Mean / t1/2 (hr), Mean: fed; for Cmax (ng/mL), Mean: healthy volunteers; for Cmax (ng/mL), Mean / AUC0-t (hr*ng/mL), Mean / tmax (hr), Median: n = 24
Excerpt: Following screening, eligible healthy volunteer subjects were admitted to a single clinical study site and were randomized to 1 of 2 treatment sequences. […] In each period, a standardized breakfast was provided to subjects prior to administration of study drug (to compare the PK profiles in the clinically relevant fed state) and plasma samples were collected over a 48-hour period after dosing for evaluation of PK. Dosing between the 2 periods was separated by a minimum of 7 days. Subjects completed the study upon completion of the 48-hour post-dose assessments following dosing period 2.
All capsules were identical in size, shape, and external color.

[6] = Phase 1 food effect study Part 2 (Cohort 5), single 500 mg dose fed vs fasted; assay type: in vivo, human; conditions: LYT-100 @500 mg single dose
Procedure: The comparison will be based on Day 1, Day 2 and Day 3 PK plasma samples after the first dose of study drug on Day 1 under fast and fed conditions of Part 2.
Subjects will be admitted to the CRU on Day-1 and will fast overnight for at least 10 h.

[7] = Treatment = LYT-100, single 801 mg oral dose
[8] = Treatment = LYT-100, single 801 mg oral dose, n = 24 (LYT-110 n = 23)
[9] = Treatment = Pirfenidone, single 801 mg oral dose
[10] = Treatment = Pirfenidone, single 801 mg oral dose, n = 24 (LYT-111 n = 19)
[11] = after LYT-100 801 mg, metabolite/LYT-100
[12] = after LYT-100 801 mg, metabolite/LYT-100, molecular weight corrected
[13] = after Pirfenidone (LYT-101) 801 mg, metabolite/LYT-101
[14] = after Pirfenidone (LYT-101) 801 mg, metabolite/LYT-101, molecular weight corrected

## O=C(O)c1ccc(=O)n(-c2ccccc2)c1 [LYT-105, 5-carboxy-pirfenidone]
[1]; Day 1, Female rats
  Ratio of exposure (AUC), Group 4 (LYT-100 at 750 mg/kg) analyte / Group 5 (SD-559 at 750 mg/kg) analyte: 0.49
[1]; Day 1, Male rats
  Ratio of exposure (AUC), Group 4 (LYT-100 at 750 mg/kg) analyte / Group 5 (SD-559 at 750 mg/kg) analyte: 0.45
[1]; Day 28, Female rats
  Ratio of exposure (AUC), Group 4 (LYT-100 at 750 mg/kg) analyte / Group 5 (SD-559 at 750 mg/kg) analyte: 0.71
[1]; Day 28, Male rats
  Ratio of exposure (AUC), Group 4 (LYT-100 at 750 mg/kg) analyte / Group 5 (SD-559 at 750 mg/kg) analyte: 0.57
[1]
  Cmax in rat relative to human: ~9 fold
  Exposure in rats relative to humans after 28 days of daily dosing: ~7 fold
  Exposure (AUC) in rat relative to human: about 8 fold
  Dose proportionality of AUC0-24 over 250 to 750 mg/kg: dose proportional
  Dose proportionality of Cmax over 250 to 750 mg/kg: approximately dose proportional
[1]; rats, 750 mg/kg each
  Lower Cmax and exposure of SD-789 after SD-560 than of SD-789 after SD-559: approximately 50%
[2]
  Accumulation ratios (AUC96-108/AUC0-12) across all dose groups: ~1
[2]; 100 to 1000 mg BID, FIG. 25
  Dose dependence of AUC96-108 across all dose Cohorts: linear dose proportionality
[2]; Cohort 4, 750 mg BID
  Average ratio to the parent (M/P) by AUC: 0.45 (0.37-0.50)
[2]; Cohort 6, 1000 mg BID
  Average ratio to the parent (M/P) by AUC: 0.56 (0.44-0.66)
[2]; LYT-100 100 mg BID with food
  observed Cmax: 567 ng/mL
[2]; LYT-100 100 mg vs Huang et al. data extrapolated assuming dose proportionality, LYT-100 vs SD-559, SD-789 vs SD-789
  % difference (vs. 200 mg SD-559) Cmax: −23%
[2]; LYT-100 250 mg BID with food
  observed Cmax: 1170 ng/mL
[2]; LYT-100 250 mg vs Huang et al. data extrapolated assuming dose proportionality
  % difference (vs. 200 mg SD-559) Cmax: −37%
[2]; LYT-100 500 mg BID with food
  observed Cmax: 2360 ng/mL
[2]; LYT-100 500 mg vs Huang et al. data extrapolated assuming dose proportionality
  % difference (vs. 200 mg SD-559) Cmax: −36%
[2]; LYT-100 750 mg BID with food
  observed Cmax: 3370 ng/mL
[2]; LYT-100 750 mg vs Huang et al. data extrapolated assuming dose proportionality
  % difference (vs. 200 mg SD-559) Cmax: −39%
[2]; LYT-100 1000 mg BID with food
  observed Cmax: 4940 ng/mL
[2]; LYT-100 1000 mg vs Huang et al. data extrapolated assuming dose proportionality
  % difference (vs. 200 mg SD-559) Cmax: −33%
[2]; MAD study, all doses
  Average ratio of metabolite to the parent (mtp) by AUC: 0.45
[3]; Huang 2013
  Plasma exposure as percent of the exposure to pirfenidone: approximately 50%
[3]; urine, after oral pirfenidone
  Share of recovered drug material excreted as this metabolite: > 95%
[4]
  observed Cmax: 1476
[5]; [7]
  Cmax (ng/mL), Mean: 3970 ng/mL
  AUC0-t (hr*ng/mL), Mean: 23090 ng·h/mL
  tmax (hr), Median: 2.50 h
[5]; [8]
  % AUC extrap, Mean: 1.13%
  AUC(inf) (hr*ng/mL), Mean: 23350 ng·h/mL
  Kel (1/hr), Mean: 0.262 h⁻¹
  t1/2 (hr), Mean: 2.91 h
[5]; [9]
  Cmax (ng/mL), Mean: 5241 ng/mL
  AUC0-t (hr*ng/mL), Mean: 26932 ng·h/mL
  tmax (hr), Median: 3.00 h
[5]; [10]
  % AUC extrap, Mean: 0.843%
  AUC(inf) (hr*ng/mL), Mean: 27159 ng·h/mL
  Kel (1/hr), Mean: 0.288 h⁻¹
  t1/2 (hr), Mean: 2.55 h
[5]; [11]
  Metabolite/Parent Ratio, AUC0-∞, Median: 32.3%
  Metabolite/Parent Ratio, Cmax, Median: 33.5%
[5]; [12]
  Metabolite/Parent Ratio, AUC0-∞, Mean: 43.8%
  Metabolite/Parent Ratio, Cmax, Mean: 43.3%
[5]; after LYT-100 801 mg, metabolite/LYT-100, molecular weight corrected, listed as 5-carboxy-pirfenidone
  Metabolite/Parent Ratio, AUC0-∞, Mean: 43.8%
[5]; [13]
  Metabolite/Parent Ratio, AUC0-∞, Median: 53.7%
  Metabolite/Parent Ratio, Cmax, Median: 57.5%
[5]; [14]
  Metabolite/Parent Ratio, AUC0-∞, Mean: 65.9%
  Metabolite/Parent Ratio, Cmax, Mean: 68.1%
[5]; after Pirfenidone (LYT-101) 801 mg, metabolite/LYT-101, molecular weight corrected, listed as 5-carboxy-pirfenidone
  Metabolite/Parent Ratio, AUC0-∞, Mean: 65.9%
[5]; single 801 mg dose each
  Reduction of AUC after LYT-100 relative to pirfenidone: approximately 15%
  Reduction of Cmax after LYT-100 relative to pirfenidone: ~25%
[6]
  AUC, % Change Fed vs Fasted: −5%
  Cmax, % Change Fed vs Fasted: −1.7%
  Tmax, % Change Fed vs Fasted: +33%

## O=c1ccc(CO)cn1-c1ccccc1 [SD-788, 5-hydroxymethyl-pirfenidone]
[5]; LYT-100 vs pirfenidone, single 801 mg dose
  Formation greater in terms of overall systemic exposure (AUC) after administration of LYT-100: approximately 50%
[5]; [9]
  Cmax (ng/mL), Mean: 17.1 ng/mL
  AUC0-t (hr*ng/mL), Mean: 75.8 ng·h/mL
  tmax (hr), Median: 2.50 h
[5]; [10]
  % AUC extrap, Mean: 10.3%
  AUC(inf) (hr*ng/mL), Mean: 89.7 ng·h/mL
  Kel (1/hr), Mean: 0.367 h⁻¹
  t1/2 (hr), Mean: 2.04 h
[5]; [13]
  Metabolite/Parent Ratio, AUC0-∞, Median: 0.2%
  Metabolite/Parent Ratio, Cmax, Median: 0.2%
[5]; [14]
  Metabolite/Parent Ratio, AUC0-∞, Mean: 0.2%
  Metabolite/Parent Ratio, Cmax, Mean: 0.2%

## [2H]C([2H])(O)c1ccc(=O)n(-c2ccccc2)c1 [SD-790, d2-5-hydroxymethyl-pirfenidone]
[1]; Day 1, Female rats
  Ratio of exposure (AUC), Group 4 (LYT-100 at 750 mg/kg) analyte / Group 5 (SD-559 at 750 mg/kg) analyte: 2.50
[1]; Day 1, Male rats
  Ratio of exposure (AUC), Group 4 (LYT-100 at 750 mg/kg) analyte / Group 5 (SD-559 at 750 mg/kg) analyte: 2.22
[1]; Day 28, Female rats
  Ratio of exposure (AUC), Group 4 (LYT-100 at 750 mg/kg) analyte / Group 5 (SD-559 at 750 mg/kg) analyte: 2.59
[1]; Day 28, Male rats
  Ratio of exposure (AUC), Group 4 (LYT-100 at 750 mg/kg) analyte / Group 5 (SD-559 at 750 mg/kg) analyte: 2.54
[1]
  Cmax in rat relative to human: ~1825 fold
  Exposure in rats relative to humans after 28 days of daily dosing: ~1600 fold
  Exposure (AUC) in rat relative to human: about 1250 fold
  Dose proportionality of AUC0-24 over 250 to 750 mg/kg: dose proportional
  Dose proportionality of Cmax over 250 to 750 mg/kg: dose proportional
[1]; rats, 750 mg/kg each, all days, both genders
  Exposure and Cmax vs the non-deuterated corresponding metabolite (SD-788) from SD-559: almost twice
[2]
  Accumulation ratios (AUC96-108/AUC0-12) across all dose groups: ~1
[2]; Cohort 4, 750 mg BID
  Average ratio to the parent (M/P) by AUC: 0.0025 (0.0020-0.0029)
[2]; Cohort 6, 1000 mg BID
  Average ratio to the parent (M/P) by AUC: 0.0028 (0.0018-0.0038)
[5]; [7]
  Cmax (ng/mL), Mean: 20.6 ng/mL
  AUC0-t (hr*ng/mL), Mean: 111 ng·h/mL
  tmax (hr), Median: 2.50 h
[5]; [8]
  % AUC extrap, Mean: 10.1%
  AUC(inf) (hr*ng/mL), Mean: 124 ng·h/mL
  Kel (1/hr), Mean: 0.294 h⁻¹
  t1/2 (hr), Mean: 2.76 h
[5]; [11]
  Metabolite/Parent Ratio, AUC0-∞, Median: 0.2%
  Metabolite/Parent Ratio, Cmax, Median: 0.2%
[5]; [12]
  Metabolite/Parent Ratio, AUC0-∞, Mean: 0.2%
  Metabolite/Parent Ratio, Cmax, Mean: 0.2%

## Cc1ccc(=O)n(-c2ccc(O)cc2)c1 [SD-1050, 4′-hydroxy-pirfenidone]
[5]; [13]
  Metabolite/Parent Ratio, Cmax, Median: 0.0%
[5]; [14]
  Metabolite/Parent Ratio, Cmax, Mean: 0.0%

## [2H]C([2H])([2H])c1ccc(=O)n(-c2ccc(O)cc2)c1 [SD-1051, d3-4′-hydroxy-pirfenidone]
[1]; Day 1, Female rats
  Ratio of exposure (AUC), Group 4 (LYT-100 at 750 mg/kg) analyte / Group 5 (SD-559 at 750 mg/kg) analyte: 21.77
[1]; Day 1, Male rats
  Ratio of exposure (AUC), Group 4 (LYT-100 at 750 mg/kg) analyte / Group 5 (SD-559 at 750 mg/kg) analyte: 34.51
[1]; Day 28, Female rats
  Ratio of exposure (AUC), Group 4 (LYT-100 at 750 mg/kg) analyte / Group 5 (SD-559 at 750 mg/kg) analyte: 38.04
[1]
  Dose proportionality of AUC0-24 over 250 to 750 mg/kg: increased dose proportionally on Day 1
  Dose proportionality of Cmax over 250 to 750 mg/kg: less than dose proportional
[2]
  Accumulation ratios (AUC96-108/AUC0-12) across all dose groups: ~1
[2]; Cohort 4, 750 mg BID
  Average ratio to the parent (M/P) by AUC: 0.0017 (0.0012-0.0022)
[2]; Cohort 6, 1000 mg BID
  Average ratio to the parent (M/P) by AUC: 0.0037 (0.0030-0.0058)
[5]; after LYT-100
  Quantifiability in human plasma: not quantifiable
[5]; [11]
  Metabolite/Parent Ratio, AUC0-∞, Median: 0.1%
  Metabolite/Parent Ratio, Cmax, Median: 0.1%
[5]; [12]
  Metabolite/Parent Ratio, AUC0-∞, Mean: 0.1%
  Metabolite/Parent Ratio, Cmax, Mean: 0.1%
